From PMC6173502 (2018)

Tests used:
Experiment in all cases: ITC
[1] = test system: BCL2 3-6-2 (DNA, G4) CGGGCACGGGAAAAAAGGGACGGGAAC; details: K+ 150 mM (KCl); 20 mM Tris, 1 mM EDTA, 30% DMSO, pH 7.2, 25 °C; mode 1 of 3
[2] = test system: BCL2 3-5-3 (DNA, G4) CGGGCACGGGAAAAAGGGAACGGGAAC; details: K+ 150 mM (KCl); 20 mM Tris, 1 mM EDTA, 30% DMSO, pH 7.2, 25 °C; mode 1 of 3
[3] = test system: KRAS 6-4-4 (DNA, G4) GGGCAATATGGGAAAAGGGAAAAGGGAAAA; details: K+ 150 mM (KCl); 20 mM Tris, 1 mM EDTA, 30% DMSO, pH 7.2, 25 °C; mode 1 of 3
[4] = test system: KRAS 6-4-6 (DNA, G4) GGGCAATATGGGAAAAGGGAAAAAAGGGAA; details: K+ 150 mM (KCl); 20 mM Tris, 1 mM EDTA, 30% DMSO, pH 7.2, 25 °C; mode 1 of 3
[5] = test system: hTel22 (DNA, G4) AGGGTTAGGGTTAGGGTTAGGG; details: 20 mM Tris, 1 mM EDTA, 30% DMSO, pH 7.2, 25 °C, mode 1 of 3

In the case of `N=C(N)c1ccc(N=NNc2ccc(C(=N)N)cc2)cc1`, the Ka [1] is reported as 41.5 × 10^7, the Ka [2] is reported as 17.5 × 10^7 and the Ka [3] is reported as 25.5 × 10^7. For the same compound, the Ka [4] was 3.85 × 10^7, the Ka ([5]; K+ 150 mM (KCl)) was 13.7 × 10^7 and the Ka ([5]; Na+ 150 mM (NaCl)) was 18.2 × 10^7.
